# Values quoted from earlier work as cited in paper PMC11693508, “Pharmacokinetics, bioavailability, and tissue distribution of MRTX1133 in rats using UHPLC-MS/MS” (Frontiers in Pharmacology, 2024).
# Tested on: tumor models, including pancreatic and colorectal cancer
# Parameters: method as in Kataoka et al., 2023; Drosten and Barbacid, 2022
# Conditions: multiple in vivo tumor models, ref Kataoka et al., 2023, Drosten and Barbacid, 2022; cited from earlier work
smiles,measurement,value
C#Cc1c(F)ccc2cc(O)cc(-c3ncc4c(N5CC6CCC(C5)N6)nc(OC[C@@]56CCCN5C[C@H](F)C6)nc4c3F)c12 [MRTX1133],antitumor effect in vivo,induces tumor regression
